{"source": "patent EP0246888A2", "about": "“Dopamine-beta-hydroxylase inhibitors” (SMITHKLINE BECKMAN CORPORATION, priority 1986, dated 1987)", "key": {"[1]": {"test_system": "spontaneously hypertensive rats", "test": "mean arterial blood pressure in spontaneously hypertensive rats", "type": "in vivo", "experimental": "Further, spontaneously hypertensive rats were treated with a suspension or solution of 1-benzyl-1,2,4-triazole-5-thiol at a dose of 100 mg/kg orally, and mean arterial blood pressure was monitored for 260 minutes using indwelling cannulae positioned in the tail arteries. When compared to vehicle-treated controls, the compound-treated animals' blood pressure was approximately 5% below that of controls 20 minutes following treatment. The compound-treated animals' blood pressure continued to fall until it reached its nadir of approximately 20% less than controls at 240 minutes after compound treatment. Similarly, 1-(3ʹ-fluorobenzyl)-1,2,4-triazole-5-thiol produced approximate 20% blood pressure reductions one hour after a 50 mg/kg intraperitoneal dose. The blood pressure of the treated animals remained approximately 20% less than controls when blood pressure monitoring was terminated."}, "[2]": {"molecular_target": "T1, DBH (Homo sapiens, UniProt P09172)", "T1 sequence (P09172 1-617)": "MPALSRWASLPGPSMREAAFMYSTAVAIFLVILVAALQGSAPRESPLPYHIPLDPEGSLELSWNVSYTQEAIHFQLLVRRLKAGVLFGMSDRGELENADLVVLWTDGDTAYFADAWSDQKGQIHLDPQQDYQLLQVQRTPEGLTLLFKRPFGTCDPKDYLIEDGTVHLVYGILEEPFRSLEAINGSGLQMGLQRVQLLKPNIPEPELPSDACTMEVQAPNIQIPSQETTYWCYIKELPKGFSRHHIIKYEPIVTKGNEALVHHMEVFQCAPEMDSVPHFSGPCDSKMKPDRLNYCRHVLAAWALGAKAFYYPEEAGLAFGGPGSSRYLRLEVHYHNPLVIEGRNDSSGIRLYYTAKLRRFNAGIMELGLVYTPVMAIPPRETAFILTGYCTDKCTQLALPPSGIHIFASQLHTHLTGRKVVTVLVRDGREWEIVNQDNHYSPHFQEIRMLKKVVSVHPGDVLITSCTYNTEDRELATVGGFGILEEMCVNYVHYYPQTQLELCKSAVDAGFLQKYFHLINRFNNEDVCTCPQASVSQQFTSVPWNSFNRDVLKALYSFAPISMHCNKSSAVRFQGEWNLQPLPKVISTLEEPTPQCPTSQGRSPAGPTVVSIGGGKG", "conditions": "reported by Runti et al., Il Farmaco Ed. Sci. 36, 260 (1980); cited from earlier work"}}}
{"molecule": "Fc1cccc(Cn2ncnc2S)c1", "note": "[1-(3ʹ-Fluorobenzyl)-1,2,4-triazole-5-thiol]", "values": [{"measurement": "blood pressure reductions", "setting": "[1]; 50 mg/kg intraperitoneal dose, one hour after dose", "value": "approximately 20%"}, {"measurement": "blood pressure less than controls", "setting": "[1]; 50 mg/kg intraperitoneal dose, when blood pressure monitoring was terminated", "value": "approximately 20%"}]}
{"molecule": "phenylpicolinic acid", "values": [{"measurement": "inhibitory activity relative to fusaric acid", "setting": "[2]", "value": "twice the inhibitory activity of fusaric acid"}]}
{"molecule": "Sc1ncnn1Cc1ccccc1", "note": "[1-benzyl-1,2,4-triazole-5-thiol, 1-Benzyl-1,2,4-triazole-5-thiol]", "values": [{"measurement": "blood pressure below that of controls", "setting": "[1]; 100 mg/kg orally, 20 minutes following treatment, vs vehicle-treated controls", "value": "approximately 5%"}, {"measurement": "blood pressure nadir, less than controls", "setting": "[1]; 100 mg/kg orally, 240 minutes after compound treatment, vs vehicle-treated controls", "value": "approximately 20%"}]}
